From patent US10420770B2, “Compositions and methods for treating dementia” (EIP Pharma, LLC, priority 2016, dated 2019)
Where “and” joins values, the source holds several entries; their conditions need not be identical. Equal values may be shown once.

Legend:
Assay type in all cases: in vivo, human
[1] = Plasma pharmacokinetics, 12-week Phase IIa study (Example 1); details: 40 mg dose level, twice daily, 12-week study
Description: Investigators and patients were blind to the dosage strength. […] Patients were instructed to take doses within 30 minutes following a meal or snack, with each dose taken approximately 12 hours apart at the same times each day throughout the study.
(§1) Dosing started on Day 1 following completion of all baseline procedures. During the treatment period, subjects returned to the clinic on Days 14, 28, 56, and 84. […] Dynamic PET scanning with fill quantitative analysis was performed at baseline and at the end of treatment.
(§2) Sixteen subjects completed the full 12 weeks of treatment and all were included in safety analyses. […] In the PK analysis, due to the sparse sampling collection design, the time period from 0 to 24 hours post-dose was divided into 4 blocks in order to show the distribution of concentrations over time. […] Average blood concentration of about 8 ng/mL at the 40 mg dose level was observed. This is higher than the 5 ng/mL.

[2] = tested on: amyloid plaque load; assay: Quantitative dynamic [11C]PiB PET amyloid scanning (RPM2-BPND), 12-week study; details: for Number of Responders/Total Number in Population, PET metric Cingulate Posterior / Number of Responders/Total Number in Population, PET metric Frontal / Number of Responders/Total Number in Population, PET metric Global / Number of Responders/Total Number in Population, PET metric Med Temp Lobe / Number of Responders/Total Number in Population, PET metric Parietal / Number of Responders/Total Number in Population, PET metric Temporal: responder = reduction of ≥7% in RPM2-BPND
Description: as §1
Target engagement was assessed through the use of an AD-related biomarker. The primary endpoint was based on assessment of amyloid plaque burden using quantitative dynamic PET amyloid scanning (Tolboom, N. et al. “Test-retest variability of quantitative [^11C]PIB studies in Alzheimer's disease.” Eur. J. Nucl. Med. Mol. Imaging 36(10): 1629-1638 (2009)). The method of van Berckel et al (van Berckel B N, R. Ossenkoppele, et al. “Longitudinal amyloid imaging using ^11CPiB: Methodologic considerations.” J. Nucl. Med. 5=1; 1570-1576 (2013)) was followed, in which dynamic emission scanning consists of 23 frames with progressive increases in frame duration (1·15, 3·5, 3·10, 2·30, 3·60, 2·150, 2·300, and 7·600 s) for a total scan duration of 90 min; and subsequently full quantitative data analysis of the images was performed by reference parametric mapping (RPM2) using cerebellum as reference tissue. This methodology allowed for a more reliable (i.e. less variable) assessment of brain amyloid plaque load than standard amyloid PET imaging. In addition this method of measuring amyloid burden has high scan-to-scan stability (˜2-3% test-test variability) within subjects. No placebo group was enrolled. Instead, reductions in brain amyloid plaque load of greater than 7%, which is definitively outside the range of test-test variability, were considered to be a drug effect in this study.

[3] = tested on: brain-derived neurotrophic factor (BDNF); assay: Plasma BDNF levels by Somascan, 12-week study; details: baseline vs after 84 days; n=10 subjects
Description: FIG. 15 depicts plasma brain-derived neurotrophic, factor (BDNF) levels at baseline and after 84 days (n=10 subjects). BDNF levels were measured by Somascan®.

[4] = Population pharmacokinetic analyses (Example 1 and Example 2 combined); details: population PK
Description: as §2

[5] = Safety and tolerability, 6-week Phase IIa study (Example 2); details: 6 weeks
Description: Investigators and patients were blinded to the dosage strength. The first 3 patients were randomly assigned to receive either 40 or 125 mg twice daily, with dosing level blinded. The remaining patients (up to 7 patients) received 40 mg twice daily on an open-label basis. […] Patients were instructed to eat a meal approximately 30 minutes before dosing with VX 745 with each dose taken approximately 12 hours (+/−3 hours) apart at the same times each day throughout the study.

[6] = tested on: interleukin-8 (IL-8); assay: CSF cytokine measurement (Mesoscale Discovery), IL-8, 6-week study; details: high exposure group by plasma AUC(0-8) on Day 1
Description: Cytokine measurements of CSF samples were done to assess the balance of pro-inflammatory versus anti-inflammatory cytokines. The t-helper type 1/t-helper type 2 (TH1/TH2) multiplex cytokine (IFN-γ, IL-1β, IL-2, IL-4, IL-5, IL-8, IL-10, IL-12p70, IL-13, TNFα ) panel by Mescoscale Discovery were utilized to inform on effects on the relative balance of pro-inflammatory cytokines (e.g. IL-1β, TNFα) versus anti-inflammatory cytokines (e.g., IL-10).
(§3) Target engagement was assessed through the evaluation of the effect of drug treatment on CSF biomarkers. CSF was collected at 6 time-points over 24 hours at baseline (the 24 hours prior to first dose) and again at 6 time-points over 24 hours near the end of treatment on Day 40. The samples were evaluated by the Mesoscale Discovery ELISA platform for multiple cytokines ((IFN-γ, IL-1β, IL-2, IL-4, IL-5, IL-8, IL-12 protein 70, IL-13, TNFα, and CSF) and for amyloid-beta peptides (Aβ 38/40/42).

[7] = tested on: amyloid-beta peptides (Aβ 38/40/42); assay: CSF amyloid-beta peptides, 6-week study; details: baseline to Day 41; p=0.01 to p=0.047
Description: Effects on CSF levels of Aβ peptides were evaluated as measures of the amyloidenic process, which is activated with aging and more so in patients with Alzheimer's disease.
as §3

[8] = tested on: neurofilament light chain (NFL); assay: CSF neurofilament light chain (NFL), 6-week study; details: baseline to day 40
Description: Phospho-tau and NFL proteins from CSF sampling were evaluated as markers of the effects of inflammation on neurodegeneration and axonopathy, respectively.

[9] = tested on: butylcholinesterase; assay: CSF butylcholinesterase, 6-week study; details: baseline to day 40
[10] = tested on: brain metabolism; assay: Brain FDG PET scan, 6-week study; details: baseline to day 40
Description: Quantitative EEG was conducted as a measure of the effects of inflammatory cytokines on synaptic function and the effects of modulation of p38 MAPK on synaptic plasticity. Brain fluorodeoxyglucose (FDG) PET scan was conducted at the Screening Visit and Day 40 to measure brain metabolism. In addition, CSF drug levels of VX-745 were obtained to confirm delivery of drug to the brain.

O=c1ncn2nc(Sc3ccc(F)cc3F)ccc2c1-c1c(Cl)cccc1Cl [VX-745]
Average blood concentration [1]: about 8 ng/mL | subjects between 3 and 7% (% change RPM2_BPND) ([2]; 40 mg): 2 | subjects who reached the 7% responder criterion (% change RPM2_BPND) ([2]; 40 mg): 3 | Number of Responders/Total Number in Population, PET metric Cingulate Posterior ([2]; 40 mg twice daily 12 weeks): 2/8 | Number of Responders/Total Number in Population, PET metric Frontal ([2]; 40 mg twice daily 12 weeks): 3/8 | Number of Responders/Total Number in Population, PET metric Global ([2]; 40 mg twice daily 12 weeks): 3/8 | Number of Responders/Total Number in Population, PET metric Med Temp Lobe ([2]; 40 mg twice daily 12 weeks): 4/8 | Number of Responders/Total Number in Population, PET metric Parietal ([2]; 40 mg twice daily 12 weeks): 3/8 | Number of Responders/Total Number in Population, PET metric Temporal ([2]; 40 mg twice daily 12 weeks): 2/8 | Number of Responders/Total Number in Population, PET metric Cingulate Posterior ([2]; 125 mg twice daily 12 weeks): 0/7 | Number of Responders/Total Number in Population, PET metric Frontal ([2]; 125 mg twice daily 12 weeks): 1/7 | Number of Responders/Total Number in Population, PET metric Global ([2]; 125 mg twice daily 12 weeks): 1/7 | Number of Responders/Total Number in Population, PET metric Med Temp Lobe ([2]; 125 mg twice daily 12 weeks): 2/7 | Number of Responders/Total Number in Population, PET metric Parietal ([2]; 125 mg twice daily 12 weeks): 0/7 | Number of Responders/Total Number in Population, PET metric Temporal ([2]; 125 mg twice daily 12 weeks): 1/7 | Percentage reduction in global cortical RPM2-BPND, individual responders ([2]; 3 responders in the 40 mg dose group, 12 weeks): −11.6% and −11.9% and −40.5% | Number of Responders/Total Number in Population, PET metric Cingulate Posterior ([2]; All, 12 weeks): 2/15 | Number of Responders/Total Number in Population, PET metric Frontal ([2]; All, 12 weeks): 4/15 | Number of Responders/Total Number in Population, PET metric Global ([2]; All, 12 weeks): 4/15 | Number of Responders/Total Number in Population, PET metric Med Temp Lobe ([2]; All, 12 weeks): 6/15 | Number of Responders/Total Number in Population, PET metric Parietal ([2]; All, 12 weeks): 3/15 | Number of Responders/Total Number in Population, PET metric Temporal ([2]; All, 12 weeks): 3/15 | Percentage reduction in global cortical RPM2-BPND, individual responder ([2]; one responder in the 125 mg dose group, 12 weeks): −7.7% | plasma BDNF levels [3]: increases plasma BDNF levels | median 12-hour exposure ([4]; 40 mg dose level): 78 ng·h/mL | median 12-hour exposure ([4]; 125 mg dose level): 116 ng·h/mL | half-life ([4]; human, plasma, oral, Examples 1 and 2 combined, read-out: terminal half-life (converted)): ~16 h | tolerability ([5]; 40 mg or 125 mg twice daily): well-tolerated | safety concerns [5]: No safety concerns were identified | safety laboratory and 12-lead ECG parameters [5]: no treatment-related or clinically relevant trends | Most common adverse events ([5]; 9 subjects): mild dizziness, headache, and somnolence reported in 2 subjects each | CSF IL-8, Day 41 vs baseline at matched time points [6]: trend towards lower CSF IL-8 | correlation between plasma drug concentration and increases in CSF Aβ 38/40/42 levels [7]: statistically significant correlation | CSF levels of neurofilament light chain (NFL) [8]: no change | CSF levels of butylcholinesterase [9]: no change | FDG-PET [10]: no change
